Measurements as given in US20240293551A1, “USE OF ST-TYPE LIPID COMPOUNDS IN PREPARATION OF NUCLEIC ACID DELIVERY REAGENT AND RELATED PRODUCT” (INSTITUTE OF BASIC MEDICAL SCIENCES CHINESE ACADEMY OF …, priority 2021, published 2024).

Tested on: PGY-sRNA-26
Assay: In vivo delivery study of lipid-nucleic acid mixture (oral gavage, RT-qPCR of PGY-sRNA-26 in tissues)
Design: species or system mouse
Conditions: C57BL/6 mice, gavage, 100 μg lipid: 10 nmol PGY-sRNA-26, 12 hours; for oral delivery of single-stranded sRNA nucleic acids into mouse intestinal tissue: intestine; for delivery efficacy over each tissue and blood tested (broad-spectrum delivery): all tissues and blood tested
Summary of the method: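 C57BL/6 male mice (~6 weeks, 20-24 g), fasted 12 h, were gavaged with 10 nmol 3′-methylated PGY-sRNA-26 mixed with 100 μg lipid (heated 90° C. 15 min), versus saline or free sRNA (n=4 each). After 12 h, blood and tissues were Trizol-extracted; sRNA quantified by stem-loop RT-qPCR relative to U6.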

Row | SMILES | oral delivery of single-stranded sRNA nucleic acids into mouse blood | oral delivery of single-stranded sRNA nucleic acids into mouse brain tissue | oral delivery of single-stranded sRNA nucleic acids into mouse femur | oral delivery of single-stranded sRNA nucleic acids into mouse heart tissue | oral delivery of single-stranded sRNA nucleic acids into mouse intestinal tissue | oral delivery of single-stranded sRNA nucleic acids into mouse kidney tissue | oral delivery of single-stranded sRNA nucleic acids into mouse liver tissue | oral delivery of single-stranded sRNA nucleic acids into mouse spleen tissue | oral delivery of single-stranded sRNA nucleic acids into mouse stomach tissue | delivery efficacy over each tissue and blood tested (broad-spectrum delivery) | oral delivery of single-stranded sRNA nucleic acids into mouse lung tissue
1 | C[C@H](CCC(=O)O)[C@H]1CC[C@H]2[C@@H]3C(=O)C[C@@H]4C[C@H](O)CC[C@]4(C)[C@H]3CC[C@]12C [Lipid 586] | can effectively orally deliver | can effectively orally deliver | can effectively orally deliver | can effectively orally deliver | can effectively orally deliver | can effectively orally deliver | can effectively orally deliver | can effectively orally deliver | can effectively orally deliver | – | –
2 | C[C@]12CCC(=O)C=C1CC[C@@H]1[C@@H]2CC[C@]2(C)C(=O)CC[C@@H]12 [Lipid 587] | can effectively orally deliver | can effectively orally deliver | – | can effectively orally deliver | – | can effectively orally deliver | – | can effectively orally deliver | can effectively orally deliver | – | –
3 | C[C@@H]1CC[C@@]2(OC1)O[C@H]1C[C@H]3[C@@H]4CC=C5C[C@@H](O)CC[C@]5(C)[C@H]4CC[C@]3(C)[C@H]1[C@@H]2C [Lipid 589] | can effectively orally deliver | can effectively orally deliver | can effectively orally deliver | can effectively orally deliver | can effectively orally deliver | can effectively orally deliver | can effectively orally deliver | can effectively orally deliver | can effectively orally deliver | exhibited the best delivery efficacy | can effectively orally deliver
4 | CC(=O)[C@H]1CC[C@H]2[C@@H]3CC=C4C[C@@H](O)CC[C@]4(C)[C@H]3CC[C@]12C [Lipid 590] | can effectively orally deliver | can effectively orally deliver | can effectively orally deliver | can effectively orally deliver | can effectively orally deliver | can effectively orally deliver | can effectively orally deliver | can effectively orally deliver | can effectively orally deliver | exhibited the best delivery efficacy | can effectively orally deliver
5 | C#C[C@]1(O)CC[C@H]2[C@@H]3CCc4cc(O)ccc4[C@H]3CC[C@@]21C [Lipid 591] | – | can effectively orally deliver | can effectively orally deliver | can effectively orally deliver | can effectively orally deliver | can effectively orally deliver | – | can effectively orally deliver | can effectively orally deliver | – | can effectively orally deliver
6 | C[C@H](CCC(=O)O)[C@H]1CC[C@H]2[C@@H]3[C@@H](O)C[C@@H]4C[C@H](O)CC[C@]4(C)[C@H]3CC[C@]12C [Lipid 592] | can effectively orally deliver | can effectively orally deliver | can effectively orally deliver | can effectively orally deliver | can effectively orally deliver | can effectively orally deliver | can effectively orally deliver | can effectively orally deliver | can effectively orally deliver | exhibited the best delivery efficacy | can effectively orally deliver
7 | C[C@]12CC[C@@H]3c4ccc(O)cc4CC[C@H]3[C@@H]1C[C@@H](O)[C@@H]2O [Lipid 633] | can effectively orally deliver | can effectively orally deliver | can effectively orally deliver | can effectively orally deliver | can effectively orally deliver | can effectively orally deliver | can effectively orally deliver | can effectively orally deliver | can effectively orally deliver | exhibited the best delivery efficacy | can effectively orally deliver
8 | CC(C)CCC[C@@H](C)[C@H]1CC[C@H]2[C@@H]3CC[C@H]4CCCC[C@]4(C)[C@H]3CC[C@]12C [Lipid 653, 5α-cholestane (5R,8R,9S,10S,13R,14S,17R)-10,13-dimethyl-17-[(2R)-6-methylheptan-2-yl]-2,3,4,5,6,7,8,9,11,12,14,15,16,17-tetradecahydro-1H-cyclopenta[a]phenanthrene] | can effectively orally deliver | can effectively orally deliver | can effectively orally deliver | can effectively orally deliver | can effectively orally deliver | can effectively orally deliver | can effectively orally deliver | can effectively orally deliver | can effectively orally deliver | exhibited the best delivery efficacy | can effectively orally deliver
